Calls of active or inactive are those of the source. No cut-off for these calls is given here.
What was measured:
Mus musculus [1] = assay: Inhibition of intestinal inflammation in SCID/NOD mouse xenografted with human Jurkat cells assessed as decrease in TLR4 expression in colon at 40 mg/kg, po administered once a day for 3 weeks by Western blot analysis; assay type: functional, organism-based; conditions: dose 40.0 mg/kg/day
Mus musculus [2] = assay: Inhibition of intestinal dysbiosis in SCID/NOD mouse xenografted with human Jurkat cells assessed as decrease in abundance of parabacteroides in cecum at 40 mg/kg, po administered once a day for 3 weeks by multiplexed 16S rRNA gene sequencing analysis; assay type: functional, organism-based; conditions: dose 40.0 mg/kg/day
Mus musculus [3] = assay: In vivo inhibition of PI3K phosphorylation at Ser249 residue in spleen of SCID/NOD mouse xenografted with human Jurkat cells at 40 mg/kg, po administered once a day for 3 weeks by Western blot method; assay type: functional, organism-based; conditions: dose 40.0 mg/kg/day
Mus musculus [4] = assay: Induction of intestinal homeostasis in SCID/NOD mouse xenografted with human Jurkat cells assessed as upregulation of occludin mRNA levels in colon at 40 mg/kg, po administered once a day for 3 weeks by real time RT-PCR analysis; assay type: functional, organism-based; conditions: dose 40.0 mg/kg/day
Mus musculus [5] = assay: Inhibition of intestinal inflammation in SCID/NOD mouse xenografted with human Jurkat cells assessed as increase in TGFbeta level in colon at 40 mg/kg, po administered once a day for 3 weeks by ELISA; assay type: functional, organism-based; conditions: dose 40.0 mg/kg/day
Jurkat [6] = assay: Antitumour activity against human Jurkat cells xenografted in SCID/NOD mouse assessed as proportion of CD45-positive cells in peripheral blood at 40 mg/kg, po administered once a day for 3 weeks by immunophenotyping based flow cytometry method (reference value: 4.88%); assay type: functional; conditions: dose 40 mg/kg/day
Mus musculus [7] = assay: Induction of immune response in SCID/NOD mouse xenografted with human Jurkat cells assessed as decrease in IL-4 level in spleen at 40 mg/kg, po administered once a day for 3 weeks by ELISA reader method; assay type: functional, organism-based; conditions: dose 40.0 mg/kg/day
Mus musculus [8] = assay: Inhibition of intestinal dysbiosis in SCID/NOD mouse xenografted with human Jurkat cells assessed as decrease in ratio of Firmicutes to Bacteroidetes in cecum at 40 mg/kg, po administered once a day for 3 weeks by multiplexed 16S rRNA gene sequencing analysis; assay type: functional; conditions: dose 40 mg/kg/day
Mus musculus [9] = assay: Antitumour activity against human Jurkat cells xenografted in SCID/NOD mouse assessed as decrease in expression of CD45 in bone marrow at 40 mg/kg, po administered once a day for 3 weeks by immunohistochemical staining method; assay type: functional, organism-based; conditions: dose 40.0 mg/kg/day
Mus musculus [10] = assay: Induction of immune response in SCID/NOD mouse xenografted with human Jurkat cells assessed as decrease in IL-10 level in spleen at 40 mg/kg, po administered once a day for 3 weeks by ELISA reader method; assay type: functional, organism-based; conditions: dose 40.0 mg/kg/day
Jurkat [11] = assay: Antitumour activity against human Jurkat cells xenografted in SCID/NOD mouse assessed as reduction of inactivity and messy hair at 40 mg/kg, po administered once a day for 3 weeks; assay type: functional, organism-based; conditions: dose 40.0 mg/kg/day
Mus musculus [12] = assay: Inhibition of intestinal dysbiosis in SCID/NOD mouse xenografted with human Jurkat cells assessed as increase in abundance of Lachnospiraceae_ NK4A136_group in cecum at 40 mg/kg, po administered once a day for 3 weeks by multiplexed 16S rRNA gene sequencing analysis; assay type: functional, organism-based; conditions: dose 40.0 mg/kg/day
Mus musculus [13] = assay: Inhibition of intestinal inflammation in SCID/NOD mouse xenografted with human Jurkat cells assessed as decrease in IL-6 level in colon at 40 mg/kg, po administered once a day for 3 weeks by ELISA; assay type: functional, organism-based; conditions: dose 40.0 mg/kg/day
Mus musculus [14] = assay: Inhibition of spleen infiltration in SCID/NOD mouse xenografted with human Jurkat cells assessed as reduction in spleen enlargement at 40 mg/kg, po administered once a day for 3 weeks; assay type: functional, organism-based; conditions: dose 40.0 mg/kg/day
Mus musculus [15] = assay: Inhibition of intestinal inflammation in SCID/NOD mouse xenografted with human Jurkat cells assessed as decrease in LPS level in colon at 40 mg/kg, po administered once a day for 3 weeks by ELISA; assay type: functional, organism-based; conditions: dose 40.0 mg/kg/day
Mus musculus [16] = assay: Induction of intestinal homeostasis in SCID/NOD mouse xenografted with human Jurkat cells assessed as increase in goblet cells in the glands at 40 mg/kg, po administered once a day for 3 weeks by Hand E staining based microscopic analysis; assay type: functional, organism-based; conditions: dose 40.0 mg/kg/day
Mus musculus [17] = assay: In vivo inhibition of Akt phosphorylation at Ser473 residue in spleen of SCID/NOD mouse xenografted with human Jurkat cells at 40 mg/kg, po administered once a day for 3 weeks by Western blot method; assay type: functional, organism-based; conditions: dose 40.0 mg/kg/day
Mus musculus [18] = assay: Induction of intestinal homeostasis in SCID/NOD mouse xenografted with human Jurkat cells assessed as decrease in enlarged colon tissue at 40 mg/kg, po administered once a day for 3 weeks by AB-PAS staining based microscopic analysis; assay type: functional, organism-based; conditions: dose 40.0 mg/kg/day
Mus musculus [19] = assay: Induction of intestinal homeostasis in SCID/NOD mouse xenografted with human Jurkat cells assessed as reduction in crypt depth in colon at 40 mg/kg, po administered once a day for 3 weeks by AB-PAS staining based microscopic analysis; assay type: functional, organism-based; conditions: dose 40.0 mg/kg/day
Mus musculus [20] = assay: Inhibition of intestinal dysbiosis in SCID/NOD mouse xenografted with human Jurkat cells assessed as increase in abundance of Akkermansia in cecum at 40 mg/kg, po administered once a day for 3 weeks by multiplexed 16S rRNA gene sequencing analysis; assay type: functional, organism-based; conditions: dose 40.0 mg/kg/day
Mus musculus [21] = assay: In vivo inhibition of mTOR phosphorylation at Ser2448 residue in spleen of SCID/NOD mouse xenografted with human Jurkat cells at 40 mg/kg, po administered once a day for 3 weeks by Western blot method; assay type: functional, organism-based; conditions: dose 40.0 mg/kg/day
Mus musculus [22] = assay: Induction of intestinal homeostasis in SCID/NOD mouse xenografted with human Jurkat cells assessed as upregulation of secretion of IgA from B cells in colon at 40 mg/kg, po administered once a day for 3 weeks by western blot analysis; assay type: functional, organism-based; conditions: dose 40.0 mg/kg/day
Mus musculus [23] = assay: Inhibition of spleen infiltration in SCID/NOD mouse xenografted with human Jurkat cells assessed as decrease in CD45 expression in spleen at 40 mg/kg, po once a day for 3 weeks by immunohistochemical staining method; assay type: functional, organism-based; conditions: dose 40.0 mg/kg/day
Mus musculus [24] = assay: Inhibition of intestinal dysbiosis in SCID/NOD mouse xenografted with human Jurkat cells assessed as decrease in abundance of Proteobacteria in cecum at 40 mg/kg, po administered once a day for 3 weeks by multiplexed 16S rRNA gene sequencing analysis; assay type: functional, organism-based; conditions: dose 40.0 mg/kg/day

## CC(C)=CCC[C@](C)(O)[C@H]1CC[C@]2(C)[C@@H]1[C@H](O)C[C@@H]1[C@@]3(C)CC[C@H](O[C@@H]4O[C@H](CO)[C@@H](O)[C@H](O)[C@H]4O)C(C)(C)[C@@H]3CC[C@]12C [GINSENOSIDE RH2]
Mus musculus [1]
  inhibition: Active
Mus musculus [2]
  inhibition: Active
Mus musculus [3]
  inhibition: Active
Mus musculus [4]
  Activity: Active
Mus musculus [5]
  inhibition: Active
Jurkat [6]
  Activity: 1.28%
Mus musculus [7]
  Activity: Active
Mus musculus [8]
  Ratio: 0.47
Mus musculus [9]
  Activity: Active
Mus musculus [10]
  Activity: Active
Jurkat [11]
  Activity: Active
Mus musculus [12]
  inhibition: Active
Mus musculus [13]
  inhibition: Active
Mus musculus [14]
  inhibition: Active
Mus musculus [15]
  inhibition: Active
Mus musculus [16]
  Activity: Active
Mus musculus [17]
  inhibition: Active
Mus musculus [18]
  Activity: Active
Mus musculus [19]
  Activity: Active
Mus musculus [20]
  inhibition: Active
Mus musculus [21]
  inhibition: Active
Mus musculus [22]
  Activity: Active
Mus musculus [23]
  inhibition: Active
Mus musculus [24]
  inhibition: Active
